These results are taken from patent US12310975B2, “Modulators of BCL6 proteolysis and associated methods of use” (Arvinas Operations, Inc., priority 2019, dated 2025).

The assay deals with BCL6 (Homo sapiens (Human), UniProt P41182). Put plainly: Immunofluorescence high content imaging of BCL6 degradation in T47D cells. The note with it: T47D cells. Type of assay: cell-based. The method, boiled down: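 T47D cells were treated 3 days at 37 °C with an 11-point 3-fold dilution series (top 0.1 or 1 μM), then fixed, permeabilized and immunostained for BCL6 with Alexa-488 secondary, CellMask and Hoechst. BCL6 signal was imaged at 10×, 4 fields/well, with top-hat smoothing.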
As for `CNC(=O)COc1cc2cc(Nc3nc(N4CCC(OC5CC6(CCN(c7cccc8c7C(=O)N(C7CCC(=O)NC7=O)C8=O)CC6)C5)CC4)ncc3Cl)ccc2n(C(C)C)c1=O` (stereo not drawn) [compound 391, 2-{[6-({5-chloro-2-[4-({7-[2-(2,6-dioxopiperidin-3-yl)-1,3-dioxo-2,3-dihydro-1H-isoindol-4-yl]-7-azaspiro[3.5]nonan-2-yl}oxy)piperidin-1-yl]pyrimidin-4-yl}amino)-2-oxo-1-(propan-2-yl)-1,2-dihydroquinolin-3-yl]oxy}-N-methylacetamide], the maximal degradation (Dmax) – broadly, the greatest extent of degradation seen – was at least 70% and the concentration for half-maximal inhibition (IC50) (in general, the midpoint of a concentration-inhibition curve) was under 10 nM.
`CNC(=O)COc1cc2cc(Nc3nc(N4CCC5(CC4)CC(OC4CCN(c6ccc7c(c6)C(=O)N(C6CCC(=O)NC6=O)C7=O)CC4)C5)ncc3Cl)ccc2n(C(C)C)c1=O` (stereo not drawn) [compound 392, 2-{[6-({5-chloro-2-[2-({1-[2-(2,6-dioxopiperidin-3-yl)-1,3-dioxo-2,3-dihydro-1H-isoindol-5-yl]piperidin-4-yl}oxy)-7-azaspiro[3.5]nonan-7-yl]pyrimidin-4-yl}amino)-2-oxo-1-(propan-2-yl)-1,2-dihydroquinolin-3-yl]oxy}-N-methylacetamide]: the 50% inhibitory concentration (IC50) was at least 100 nM.
`CNC(=O)COc1cc2cc(Nc3nc(N4CCC5(CC4)CC(OC4CCN(c6cccc7c6C(=O)N(C6CCC(=O)NC6=O)C7=O)CC4)C5)ncc3Cl)ccc2n(C(C)C)c1=O` (stereo not drawn) [compound 393, 2-{[6-({5-chloro-2-[2-({1-[2-(2,6-dioxopiperidin-3-yl)-1,3-dioxo-2,3-dihydro-1H-isoindol-4-yl]piperidin-4-yl}oxy)-7-azaspiro[3.5]nonan-7-yl]pyrimidin-4-yl}amino)-2-oxo-1-(propan-2-yl)-1,2-dihydroquinolin-3-yl]oxy}-N-methylacetamide] gave a Dmax of at least 70% and an IC50 of under 10 nM.
`CC[C@H]1CN(c2ncc(Cl)c(Nc3ccc4c(c3)cc(OCC(=O)NC)c(=O)n4C(C)C)n2)C[C@@H](COc2ccc3c(c2)C(=O)N(C2CCC(=O)NC2=O)C3=O)O1` (stereo partly drawn) [compound 394, 2-{[6-({5-chloro-2-[(2S,6S)-2-({[2-(2,6-dioxopiperidin-3-yl)-1,3-dioxo-2,3-dihydro-1H-isoindol-5-yl]oxy}methyl)-6-ethylmorpholin-4-yl]pyrimidin-4-yl}amino)-2-oxo-1-(propan-2-yl)-1,2-dihydroquinolin-3-yl]oxy}-N-methylacetamide] yielded a Dmax of 50 to 70% and a concentration for half-maximal inhibition (IC50) of under 10 nM.
In turn, `CNC(=O)CCN1Cc2cc(Nc3nc(N4CCN(CC5CCN(c6ccc7c(c6)C(=O)N(C6CCC(=O)NC6=O)C7=O)CC5)CC4)ncc3Cl)ccc2CC1=O` (stereo not drawn) [compound 395, 3-[7-({5-chloro-2-[4-({1-[2-(2,6-dioxopiperidin-3-yl)-1,3-dioxo-2,3-dihydro-1H-isoindol-5-yl]piperidin-4-yl}methyl)piperazin-1-yl]pyrimidin-4-yl}amino)-3-oxo-1,2,3,4-tetrahydroisoquinolin-2-yl]-N-methylpropanamide] had an IC50 of 1000 nM.
Compound `CNC(=O)COc1cc2cc(Nc3nc(N4CCN(C(C)(C)C5CCN(c6cccc(C(=O)NC7CCC(=O)NC7=O)[n+]6[O-])CC5)CC4)ncc3Cl)ccc2n(C)c1=O` (stereo not drawn) [compound 396, 2-[4-(2-{4-[5-chloro-4-({1-methyl-3-[(methylcarbamoyl)methoxy]-2-oxo-1,2-dihydroquinolin-6-yl}amino)pyrimidin-2-yl]piperazin-1-yl}propan-2-yl)piperidin-1-yl]-6-[(2,6-dioxopiperidin-3-yl)carbamoyl]pyridin-1-ium-1-olate] had a maximal degradation (Dmax) of under 50% and an IC50 of 10 to 50 nM.
With `CNC(=O)COc1cc2cc(Nc3nc(N4CCN(CC5CCN(c6cccc(C(=O)NC7CCC(=O)NC7=O)[n+]6[O-])CC5)CC4)ncc3Cl)ccc2n(C(C)C)c1=O` (stereo not drawn) [compound 397, 2-[4-({4-[5-chloro-4-({3-[(methylcarbamoyl)methoxy]-2-oxo-1-(propan-2-yl)-1,2-dihydroquinolin-6-yl}amino)pyrimidin-2-yl]piperazin-1-yl}methyl)piperidin-1-yl]-6-[(2,6-dioxopiperidin-3-yl)carbamoyl]pyridin-1-ium-1-olate], the Dmax is under 50% and the IC50 lay within 10 to 50 nM.
As for `CNC(=O)COc1cc2cc(Nc3nc(N4CCN(CC5CCCN5c5cccc6c5C(=O)N(C5CCC(=O)NC5=O)C6=O)CC4)ncc3Cl)ccc2n(C(C)C)c1=O` (stereo not drawn) [compound 398, 2-{[6-({5-chloro-2-[4-({1-[2-(2,6-dioxopiperidin-3-yl)-1,3-dioxo-2,3-dihydro-1H-isoindol-4-yl]pyrrolidin-2-yl}methyl)piperazin-1-yl]pyrimidin-4-yl}amino)-2-oxo-1-(propan-2-yl)-1,2-dihydroquinolin-3-yl]oxy}-N-methylacetamide], the Dmax is under 50% and the half-inhibitory concentration (IC50) is under 10 nM.
With `CNC(=O)COc1cc2cc(Nc3nc(N4CCN(CC5CCN(C(=O)c6ccc(OC)c(N7CCC(=O)NC7=O)c6)CC5)CC4)ncc3Cl)ccc2n(C(C)C)c1=O` [compound 401, 2-{[6-({5-chloro-2-[4-({1-[3-(2,4-dioxo-1,3-diazinan-1-yl)-4-methoxybenzoyl]piperidin-4-yl}methyl)piperazin-1-yl]pyrimidin-4-yl}amino)-2-oxo-1-(propan-2-yl)-1,2-dihydroquinolin-3-yl]oxy}-N-methylacetamide], the Dmax was under 50% and the IC50 is under 10 nM.
`CNC(=O)COc1cc2cc(Nc3nc(N4CCN(CC5CCN(C(=O)c6ccc(N7CCC(=O)NC7=O)cc6)CC5)CC4)ncc3Cl)ccc2n(C(C)C)c1=O` [compound 402, 2-{[6-({5-chloro-2-[4-({1-[4-(2,4-dioxo-1,3-diazinan-1-yl)benzoyl]piperidin-4-yl}methyl)piperazin-1-yl]pyrimidin-4-yl}amino)-2-oxo-1-(propan-2-yl)-1,2-dihydroquinolin-3-yl]oxy}-N-methylacetamide]: the 50% inhibitory concentration (IC50) is at least 100 nM.
As to `CNC(=O)COc1cc2cc(Nc3nc(N4CCC(O[C@H]5C[C@H](N6CCC(c7ccc8c(c7)C(=O)N(C7CCC(=O)NC7=O)C8=O)CC6)C5)CC4)ncc3Cl)ccc2n(C(C)C)c1=O` (stereo partly drawn) [compound 403, 2-({6-[(5-chloro-2-{4-[(1r,3r)-3-{4-[2-(2,6-dioxopiperidin-3-yl)-1,3-dioxo-2,3-dihydro-1H-isoindol-5-yl]piperidin-1-yl}cyclobutoxy]piperidin-1-yl}pyrimidin-4-yl)amino]-2-oxo-1-(propan-2-yl)-1,2-dihydroquinolin-3-yl}oxy)-N-methylacetamide], the Dmax was in the range of 50 to 70% and the half-maximal inhibitory concentration (IC50) is under 10 nM.
For the compound `CNC(=O)COc1cc2cc(Nc3nc(N4CCN(CC5CCN(c6cc7c(cc6OC)C(=O)N(C6CCC(=O)NC6=O)C7=O)CC5)CC4)ncc3Cl)ccc2n(C(C)C)c1=O` (stereo not drawn) [compound 404, 2-{[6-({5-chloro-2-[4-({1-[2-(2,6-dioxopiperidin-3-yl)-6-methoxy-1,3-dioxo-2,3-dihydro-1H-isoindol-5-yl]piperidin-4-yl}methyl)piperazin-1-yl]pyrimidin-4-yl}amino)-2-oxo-1-(propan-2-yl)-1,2-dihydroquinolin-3-yl]oxy}-N-methylacetamide], the Dmax was at least 70% and the 50% inhibitory concentration (IC50) lay within 10 to 50 nM.
